Test system: patients in treatment for chronic neuropathic pain
Assay: 42 patient physician-sponsored open label clinical study of the compounded transdermal formulation
Assay type: in vivo
Details: about 1/4 gm applied to site of pain twice a day; overall trial 18 months
Method: A number of examples of formulations of the invention were made. The formulations were used in the 42 patient open-label study of Example 2 and applied under “Cannacreme-C” 60 gm.
A 42 patient open label clinical study was performed as a physician sponsored study of patients in treatment for chronic pain with different diagnoses.
Patients ranged in age from 30 to 70 years old and were both male and female. […]
Outcome measures included a patient's own subjective report, clinician's notes, as well as questionnaires such as the McGill Pain Questionnnaire (Melzack R., Pain. 1:277-299, 1975), Fibromyalgia impact Questionnaire (Burckhardt, C. S. et al., J. Rheumatol. 18:728-733, 1991), Visual Analogue Pain Rating Scale (such as reviewed in Wewers M. E. and Lowe N. K. Res. Nursing Health 13:227-236, 1990), and Likert Pain Scales (Likert, R. Arch. Psychol. 140: 55, 1932). Objective electrophysiological monitoring including Quantitative Sensory Testing, Electromyogram, and Nerve Conduction Studies, as required from patient to patient. […]

CCCCCCC(C)(C)c1cc(O)c2c(c1)OC(C)(C)C1CCC(=O)CC21 (stereo not shown) [Nabilone, 3-(1,1-dimethylheptyl)-6,6a,7,8,10,10a-hexahydro-1-hydroxy-6,6-dimethyl-9H-dibenzo[b,d]pyran-9-one]
local site sensitization, irritation or Adverse Drug Reaction: no reports of local site sensitization or irritation

Reference: patent US20100184848A1, “TRANSDERMAL FORMULATIONS OF SYNTHETIC CANNABINOIDS AND NANO COLLOIDAL SILICA” (priority 2006, published 2010)
